Measurements taken from US20040219201A1, “Tempamine compositions and methods of use” (priority 2001, published 2004).

How the values were obtained:
[1] = Lipid bilayer/aqueous phase distribution (dialysis membrane); format: physicochemical; conditions: no ammonium sulfate gradient
Method: In another study, the partition of tempamine between the lipid bilayer and the aqueous phase was determined. The lipid bilayer/aqueous phase distribution was performed using a dialysis membrane separating the phases in 0.15 M NaCl (Samuni, A., et al., Free Radic Biol Med., 22:1165 (1997)). There was no predisposition of tempamine for the lipid bilayer over the 0.15 M NaCl aqueous phase and the distribution of tempamine was equal between the liposome preparation (10% egg phosphatidylcholine (EPC) (w/v)) and 0.15 M NaCl (data not shown).

[2] = test system: MCF-7 cancer cells; assay: Apoptosis detection by merocyanine-540 staining and flow cytometry; format: cell-based, human; conditions: MCF-7, 1 mM tempamine, 24 hours; 14% without treatment
Description: In another study, the MCF-7 cell line was used to investigate the mechanism of growth inhibition by tempamine. Untreated cells and tempamine-treated cells (24-hours exposure) were contacted with merocyanine-540. Merocyanine-540 binds selectively to phophatidylserine, which appears at the external surface of the cell at the beginning of apoptosis and is therefore one of the apoptotic markers (Reid, S., et al., J. lmmnol. Methods 192:43 (1996)). After interaction with merocyanine-540, cells were analyzed by flow cytometry as described in the methods section below. […] After the 24 hour treatment period, the cells were trypsinized, stained with merocyanine-540 and analyzed by flow cytometry. […]
Apoptosis was assessed by flow cytometry (FACScan). 1×10^6 cells were removed from culture, washed with PBS, and stained with merocyanine-540 (Reid, S., et al., J. Immunol. Methods 192:43 (1996). Briefly, the cell pellet was resuspended in 500 μl PBS. 2.5 μl of a 1 mg/ml solution of merocyanine-540 was added to the cells, incubated for 2 min at room temperature in the dark. The cells were washed, resuspended in 1 ml PBS, and run immediately on a fluorescence-activated cell-sorting flow cytometer (Vantage, Becton Dickinson, Rutherford, N.J., USA).

[3] = test system: M-109R (doxorubicin-resistant human breast carcinoma); assay: Cytotoxicity assay (methylene blue); tempamine alone or doxorubicin plus tempamine; format: cell-based
Method: (§1) As described in Example 1, the cytotoxicity of tempamine was determined on three cell lines, MCF-7 (human breast adenocarcinoma), M-109S (doxorubicin-sensitive human breast carcinoma), and M-109R (doxorubicin-resistant human breast carcinoma). The effect of free tempamine on cell proliferation was determined by a methylene blue assay as described in Example 1B.
(§2) In yet another aspect, the invention contemplates administration of tempamine in combination with chemotherapeutic agent. […] Doxorubicin was chosen as a model chemotherpeutic agent. The enhancement of doxorubicin cytotoxicity by tempamine was tested on three cell lines, as described in Example 1A. A cytotoxicity assay as described in Example 1B was used. Two of the cell lines, MCF-7 and M-109S, were doxorubicin-sensitive lines and one cell line, M-109R, was doxorubicin resistant. MCF-7 cells are more sensitive to tempamine (100 μM caused 75% growth inhibition), but are less sensitive to doxorubicin, than are M-109S cells.
(§3) MCF-7 (human breast adenocarcinoma), M-109S (doxorubicin-sensitive human breast carcinoma), and M-109R (doxorubicin-resistant human breast carcinoma) were maintained in RPMI medium (Biological Industries, Beit HaEmek, Israel) supplemented with 10% fetal calf serum (FCS). The cell lines were maintained under standard culture conditions at 37° C. in a humidified 5% CO2 atmosphere.
(§4) The effect of tempamine on cell proliferation was determined by the methylene blue assay (Horowitz, A. T., et al., Biochim BiophysActa. 1109:203, (1992)). Briefly, cells were seeded onto 96-well plates (MCF cells at a density of 6×10^3 cells per well, and M-109S and M-109R at a density of 1.5×10^3 cells per well) and allowed to grow for 24 hours prior to treatment with different concentrations of tempamine. After the addition of tempamine (5×10^−5 to 4×10^−4), the cells were incubated in RPMI +10% FCS for four days without change of medium. Then the cells were fixed with 2.5% glutaraldehyde, stained with methylene blue and assayed spectrophotometrically.

[4] = test system: M-109S (doxorubicin-sensitive human breast carcinoma); assay: as above; format: cell-based; conditions: Homo sapiens, read-out: IC50 (cytotoxicity)
Method: as §1, §2, §3, §4

## CC1(C)CC(N)CC(C)(C)N1[O] [tempamine, 2,2,6,6-tetramethylpiperidine-4-amino-1-oxyl]
[1]
  distribution between liposome preparation (10% EPC w/v) and 0.15 M NaCl: equal
[2]
  fluorescently labeled (apoptotic) cells: 77%
[3]; Homo sapiens, read-out: IC50 (cytotoxicity)
  IC50: ~700 µM
[3]; M-109R, addition of 200 μM tempamine
  cell sensitivity to doxorubicin: enhanced cell sensitivity to doxorubicin
[4]
  IC50: ~700 µM
